Where a name gives a salt, the structure may show the parent alone. Read-outs that look alike come from different tables or passages of the source.
Legend:
[1] = target: T1, β1-adrenoceptor (Rattus norvegicus, UniProt P18090); assay: Experiment for measuring β1-adrenoceptor stimulating effects (heart rate increase in isolated rat atria, Magnus method); type: cell-based; conditions: isolated atria of male SD rats, 100% = increase after 10^−8M isoproterenol
T1 construct: Atria of male SD rats (250 to 400 g in body weight) were isolated; from tissue; host or cells: atria of male SD rats
Method: Namely, the experiment was conducted using atria of rats according to the Magnus method. The increment of heart rate after addition of 10^−8M isoproterenol was expressed as 100%. A test compound was added cumulatively.
The Experiment for Measuring β1-adrenoceptor Stimulating Effects
Atria of male SD rats (250 to 400 g in body weight) were isolated and the experiment was conducted according to the Magnus method. The preparations with a tension of 0.5 g were exposed to Krebs-Henseleit solution maintained at 37° C. and gassed with a mixture of 95% oxygen and 5% carbon dioxide. The cardiac contractility was isometrically measured with a force-displacement transducer, and heart rate was recorded via a tachometer. A test compound was added cumulatively. Increase of heart rate per minute after addition of 10^−8M isoproterenol was expressed as 100%.

[2] = target: T2, β2-adrenoceptor (Rattus norvegicus, UniProt P10608); assay: Experiment for measuring β2-adrenoceptor stimulating effects (inhibition of spontaneous contraction of isolated pregnant rat uterus, Magnus method); type: cell-based; conditions: isolated uteri of pregnant SD rats (pregnancy day 21), sum of contractions during 5 minutes
T2 construct: Uteri of pregnant SD rats (pregnancy day 21) were isolated; from tissue; host or cells: uterus (myometrium strips) of pregnant SD rats, day 21
Method: Also, uteri of pregnant rats were isolated and preparations were made. The experiment was conducted according to the Magnus method. The sum of uterine contractions during 5 minutes before addition of a test compound was expressed as 100%. The test compound was added cumulatively.
The Experiment for Measuring β2-adrenoceptor Stimulating Effects
Uteri of pregnant SD rats (pregnancy day 21) were isolated and longitudinal strips of approximately 15 mm in length and approximately 5 mm in width free from the basal plate were prepared. The experiment was conducted according to the Magnus method. The preparations with a tension of 0.5 g were exposed to Locke-Ringer solution maintained at 37° C. and gassed with a mixture of 95% oxygen and 5% carbon dioxide. Spontaneous contractions of myometrium were isometrically measured with a force-displacement transducer and recorded. A test compound was cumulatively added to the Magnus bath every 5 minutes.

[3] = target: β3-adrenoceptor (Mustela putorius furo, UniProt M3YEU4); assay: Experiment for measuring β3-adrenoceptor stimulating effects (relaxation of isolated ferret urinary bladder smooth muscle, Magnus method); type: cell-based; conditions: read-out: EC50 value (concentration required to produce 50% of the relaxation of urinary bladder smooth muscle); isolated male ferret urinary bladder strips; 0% = maximal relaxation by 10^−5M forskolin
Method: Namely, urinary bladders of ferrets were isolated and preparations were made. The experiment was conducted according to the Magnus method. The […] tension without addition of a test compound is expressed as 100%, and the tension of maximal relaxation after addition of 10^−5M forskolin was expressed as 0%. The test compound was added cumulatively.
The Experiment for Measuring β3-adrenoceptor Stimulating Effects
Urinary bladders of male ferrets (1100 to 1400 g in body weight) were isolated and urinary bladder smooth muscle strips of approximately 10 mm in length and approximately 2 mm in width were prepared. The experiment was conducted according to the Magnus method. The preparations with a tension of 1 g were exposed to Krebs-Henseleit solution maintained at 37° C. and gassed with a mixture of 95% oxygen and 5% carbon dioxide. Basal tensions of urinary bladder were isometrically measured with a force-displacement transducer and recorded. A test compound was cumulatively added to the Magnus bath every about 5 minutes. Tension of urinary bladder smooth muscle before addition of the test compound was expressed as 100% and tension of maximal relaxation induced by 10^−5M of forskolin was expressed as 0%.

[4] = system: male ICR rats; assay: Acute toxicity test; type: in vivo, rat; conditions: male ICR rats of 4 weeks age, oral, 2 g/kg, during 24 hours after the administration, hydrochloride
Method: Furthermore, the compounds represented by the above general formula (I) of the present invention are very safe.
To male ICR rats of 4 weeks age was administered orally ethyl 2-[2-chloro-4-[2-[[(1S,2R)-2-hydroxy-2-(4-hydroxyphenyl)1-methylethyl]amino]ethyl]phenoxy]acetate hydrochloride at a does of 2 g/kg.

T2 sequence (P10608 whole entry): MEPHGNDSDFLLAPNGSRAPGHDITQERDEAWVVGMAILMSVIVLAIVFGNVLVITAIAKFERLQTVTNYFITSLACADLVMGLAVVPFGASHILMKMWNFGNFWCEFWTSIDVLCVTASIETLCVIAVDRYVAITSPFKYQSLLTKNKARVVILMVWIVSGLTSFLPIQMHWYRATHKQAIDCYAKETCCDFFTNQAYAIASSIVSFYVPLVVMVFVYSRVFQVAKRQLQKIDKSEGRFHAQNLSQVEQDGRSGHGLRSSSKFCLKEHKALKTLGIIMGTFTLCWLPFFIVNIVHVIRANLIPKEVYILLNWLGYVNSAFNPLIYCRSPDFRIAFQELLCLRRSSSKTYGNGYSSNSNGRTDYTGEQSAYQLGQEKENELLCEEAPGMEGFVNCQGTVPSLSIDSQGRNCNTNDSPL
T1 sequence (P18090 whole entry): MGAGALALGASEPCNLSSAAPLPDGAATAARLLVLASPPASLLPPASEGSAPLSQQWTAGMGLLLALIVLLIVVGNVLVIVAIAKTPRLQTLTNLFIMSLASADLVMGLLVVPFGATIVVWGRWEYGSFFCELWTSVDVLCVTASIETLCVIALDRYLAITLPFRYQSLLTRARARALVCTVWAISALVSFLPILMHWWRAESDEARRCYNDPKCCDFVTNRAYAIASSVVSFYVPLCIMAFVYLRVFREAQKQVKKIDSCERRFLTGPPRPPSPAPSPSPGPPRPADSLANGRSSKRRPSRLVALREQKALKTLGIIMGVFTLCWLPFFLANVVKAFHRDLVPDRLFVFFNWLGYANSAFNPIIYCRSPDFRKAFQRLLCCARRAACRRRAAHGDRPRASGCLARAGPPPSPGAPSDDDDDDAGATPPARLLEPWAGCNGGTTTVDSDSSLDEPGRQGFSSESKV
β3-adrenoceptor, sequence (M3YEU4 1-435): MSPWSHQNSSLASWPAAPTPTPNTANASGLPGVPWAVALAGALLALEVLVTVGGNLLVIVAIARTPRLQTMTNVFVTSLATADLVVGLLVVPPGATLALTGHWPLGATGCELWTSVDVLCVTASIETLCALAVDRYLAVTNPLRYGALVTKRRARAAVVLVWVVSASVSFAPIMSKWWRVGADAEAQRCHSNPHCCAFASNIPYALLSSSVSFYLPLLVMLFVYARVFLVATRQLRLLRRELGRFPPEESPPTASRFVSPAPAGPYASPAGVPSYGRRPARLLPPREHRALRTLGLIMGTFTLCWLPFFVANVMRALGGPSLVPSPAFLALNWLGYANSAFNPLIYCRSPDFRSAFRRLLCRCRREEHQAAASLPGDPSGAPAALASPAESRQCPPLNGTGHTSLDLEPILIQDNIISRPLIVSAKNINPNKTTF

EC50 [2] [µM]	Structure (SMILES)	EC50 [1] [µM]	also measured
–	C[C@H](Cc1ccc(OCC(=O)O)cc1)NC[C@H](O)c1cccc(Cl)c1 [(R,R)-BRL-37344, reference compound]	–	EC50 ([1]; read-out: EC50 value (concentration required to produce 50% increase of heart rate per minute)): 0.27 µM; EC50 ([2]; read-out: EC50 value (concentration required to produce 50% of the inhibition of uterine contraction)): 0.009 µM; EC50 [3]: 0.0016 µM
10	C[C@H](NCCc1ccc(OCC(=O)O)c(Br)c1)[C@H](O)c1ccc(O)cc1 [Compound 24]	> 100	–
–	C[C@H](NCCc1ccc(OCC(=O)O)c(Cl)c1)[C@H](O)c1ccc(O)cc1 [Compound 25, 2-[2-Chloro-4-[2-[[(1S,2R)-2-hydroxy-2-(4-hydroxyphenyl)-1-methylethyl]amino]ethyl]phenoxy]acetic acid]	70	–
1.4	C[C@H](NCCc1cc(Cl)c(OCC(=O)O)c(Cl)c1)[C@H](O)c1ccc(O)cc1 [Compound 26]	> 100	–
0.49	C[C@H](NCCc1cc(Cl)c(OCC(=O)O)cc1Cl)[C@H](O)c1ccc(O)cc1 [Compound 27, 2-[2,5-Dichloro-4-[2-[[(1S,2R)-2-hydroxy-2-(4-hydroxyphenyl)-1-methylethyl]amino]ethyl]phenoxy]acetic acid]	49	–
1.8	C[C@H](NCCc1ccc(OCC(=O)O)c(F)c1)[C@H](O)c1ccc(O)cc1 [Compound 28, 2-[2-Fluoro-4-[2-[[(1S,2R)-2-hydroxy-2-(4-hydroxyphenyl)-1-methylethyl]amino]ethyl]phenoxy]acetic acid]	30	–
25	CCOc1cc(CCN[C@@H](C)[C@H](O)c2ccc(O)cc2)ccc1OCC(=O)O [Compound 30, 2-[2-Ethoxy-4-[2-[[(1S,2R)-2-hydroxy-2-(4-hydroxyphenyl)-1-methylethyl]amino]ethyl]phenoxy]acetic acid]	> 100	–
1.9	C[C@H](NCCc1ccc(OCC(=O)O)c(OCc2ccccc2)c1)[C@H](O)c1ccc(O)cc1 [Compound 31, 2-[2-Benzyloxy-4-[2-[[(1S,2R)-2-hydroxy-2-(4-hydroxyphenyl)-1-methylethyl]amino]ethyl]phenoxy]acetic acid]	> 100	–
13	Cc1cc(CCN[C@@H](C)[C@H](O)c2ccc(O)cc2)ccc1OCC(=O)O [Compound 33]	31	–
1.8	Cc1cc(OCC(=O)O)c(C)cc1CCN[C@@H](C)[C@H](O)c1ccc(O)cc1 [Compound 35, 2-[4-[2-[[(1S,2R)-2-Hydroxy-2-(4-hydroxyphenyl)-1-methylethyl]amino]ethyl]-2,5-dimethylphenoxy]acetic acid]	38	–
20	C[C@H](NCCc1ccc(OCC(=O)O)c(C(F)(F)F)c1)[C@H](O)c1ccc(O)cc1 [Compound 36, 2-[4-[2-[[(1S,2R)-2-Hydroxy-2-(4-hydroxyphenyl)-1-methylethyl]amino]ethyl]-2-(trifluoromethyl)phenoxy]acetic acid hydrochloride]	> 100	–
76	C[C@H](NCCc1ccc(OCC(=O)O)c(C#N)c1)[C@H](O)c1ccc(O)cc1 [Compound 37, 2-[2-Cyano-4-[2-[[(1S,2R)-2-hydroxy-2-(4-hydroxyphenyl)-1-methylethyl]amino]ethyl]phenoxy]acetic acid]	33	–
2.6	C[C@H](NCCc1ccc(OCC(=O)O)c([N+](=O)[O-])c1)[C@H](O)c1ccc(O)cc1 [Compound 38, 2-[4-[2-[[(1S,2R)-2-Hydroxy-2-(4-hydroxyphenyl)-1-methylethyl]amino]ethyl]-2-nitrophenoxy]acetic acid]	58	–
1	CCOC(=O)COc1ccc(CCN[C@@H](C)[C@H](O)c2ccc(O)cc2)cc1NC=O [Compound 40, Ethyl 2-[2-Formylamino-4-[2-[[(1S,2R)-2-hydroxy-2-(4-hydroxyphenyl)-1-methylethyl]amino]ethyl]phenoxy]acetate]	3.5	–
53	C[C@H](NCCc1ccc(OCC(=O)O)c(C(=O)N(C)C)c1)[C@H](O)c1ccc(O)cc1 [Compound 43, 2-[2-(Dimethylaminocarbonyl)-4-[2-[[(1S,2R)-2-hydroxy-2-(4-hydroxyphenyl)-1-methylethyl]amino]ethyl]phenoxy]acetic acid]	58	–
0.21	C[C@H](NCCc1ccc(OCC(=O)O)c(O)c1)[C@H](O)c1ccc(O)cc1 [Compound 46, 2-[2-Hydroxy-4-[2-[[(1S,2R)-2-hydroxy-2-(4-hydroxyphenyl)-1-methylethyl]amino]ethyl]phenoxy]acetic acid]	21	–
17	C[C@H](NCCc1ccc(OCC(=O)O)c(N(C)C)c1)[C@H](O)c1ccc(O)cc1 [Compound 47, 2-[2-Dimethylamino-4-[2-[[(1S,2R)-2-hydroxy-2-(4-hydroxyphenyl)-1-methylethyl]amino]ethyl]phenoxy]acetic acid]	> 100	–
–	CCOC(=O)COc1ccc(CCN[C@@H](C)[C@H](O)c2ccc(O)cc2)cc1Cl.Cl [Compound 48, Ethyl 2-[2-chloro-4-[2-[[(1S,2R)-2-hydroxy-2-(4-hydroxyphenyl)-1-methylethyl]amino]ethyl]phenoxy]acetate hydrochloride]	17	Death of animals (acute toxicity) ([4]; listed as ethyl 2-[2-chloro-4-[2-[[(1S,2R)-2-hydroxy-2-(4-hydroxyphenyl)1-methylethyl]amin): No death of animals was observed; Death of animals (acute toxicity) ([4]; listed as ethyl 2-[2-chloro-4-[2-[[(1S,2R)-2-hydroxy-2-(4-hydroxyphenyl)-1-methylethyl]ami): no death was observed
0.061	CCOC(=O)COc1cc(Cl)c(CCN[C@@H](C)[C@H](O)c2ccc(O)cc2)cc1Cl [Compound 49, Ethyl 2-[2,5-dichloro-4-[2-[[(1S,2R)-2-hydroxy-2-(4-hydroxyphenyl)-1-methylethyl]amino]ethyl]phenoxy]acetate hydrochloride]	6.8	–

Structure (SMILES)	EC50 [2] [µM]	EC50 [1] [µM]	also measured
COc1cc(CCN[C@@H](C)[C@H](O)c2ccc(O)cc2)ccc1OCC(=O)O [Compound 29, 2-(4-[2-[[(1S,2R)-2-Hydroxy-2-(4-hydroxyphenyl)-1-methylethyl]amino]ethyl]-2-methoxyphenoxy]acetic acid]	3.9	> 100	–

Reference: patent US6538152B1, “Phenoxyacetic acid derivatives and medicinal compositions containing the same” (Kissei Pharmaceutical Co., Ltd., priority 1998, dated 2003)
